Measurements from PubChem BioAssay (NCI).
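Cultured in 96-well plates, cells were exposed to test compound for 48 hours across five concentrations. TGI marks complete inhibition of growth.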

Columns and labels:
Assay in all cases: NCI anticancer screen, dose series, 48 h
HOP-92 NSCLC = tested on: HOP-92 NSCLC
DLD-1 colon = tested on: DLD-1 colon
TK-10 renal = tested on: TK-10 renal
SK-MEL-2 melanoma = tested on: SK-MEL-2 melanoma
MOLT-4 leukemia = tested on: MOLT-4 leukemia
DMS 114 small cell lung = tested on: DMS 114 small cell lung
UO-31 renal = tested on: UO-31 renal
OVCAR-3 ovarian = tested on: OVCAR-3 ovarian
SF-268 CNS = tested on: SF-268 CNS
EKVX NSCLC = tested on: EKVX NSCLC
HL-60(TB) leukemia = tested on: HL-60(TB) leukemia
UACC-257 melanoma = tested on: UACC-257 melanoma
SN12C renal = tested on: SN12C renal
NCI-H522 lung = tested on: NCI-H522 lung
SF-539 CNS = tested on: SF-539 CNS
OVCAR-5 ovarian = tested on: OVCAR-5 ovarian
SF-295 CNS = tested on: SF-295 CNS
M19-MEL melanoma = tested on: M19-MEL melanoma
SK-MEL-28 melanoma = tested on: SK-MEL-28 melanoma
MALME-3M melanoma = tested on: MALME-3M melanoma
ACHN renal = tested on: ACHN renal
NCI-H460 lung = tested on: NCI-H460 lung
HOP-18 NSCLC = tested on: HOP-18 NSCLC
U251 CNS = tested on: U251 CNS
RPMI-8226 leukemia = tested on: RPMI-8226 leukemia
SNB-75 CNS = tested on: SNB-75 CNS
SNB-19 CNS = tested on: SNB-19 CNS
NCI-H23 lung = tested on: NCI-H23 lung
SW-620 colon = tested on: SW-620 colon
A549 NSCLC = tested on: A549 NSCLC
IGROV1 ovarian = tested on: IGROV1 ovarian
M14 melanoma = tested on: M14 melanoma
COLO 205 colon = tested on: COLO 205 colon
CCRF-CEM leukemia = tested on: CCRF-CEM leukemia
OVCAR-4 ovarian = tested on: OVCAR-4 ovarian
K-562 leukemia = tested on: K-562 leukemia
HCT-116 colon = tested on: HCT-116 colon
LOX IMVI melanoma = tested on: LOX IMVI melanoma
KM12 colon = tested on: KM12 colon
UACC-62 melanoma = tested on: UACC-62 melanoma
SK-OV-3 ovarian = tested on: SK-OV-3 ovarian
CAKI-1 renal = tested on: CAKI-1 renal
SNB-78 CNS = tested on: SNB-78 CNS
786-0 renal = tested on: 786-0 renal
HCT-15 colon = tested on: HCT-15 colon
OVCAR-8 ovarian = tested on: OVCAR-8 ovarian
KM20L2 colon = tested on: KM20L2 colon
RXF 393 renal = tested on: RXF 393 renal
HT29 colon = tested on: HT29 colon
SK-MEL-5 melanoma = tested on: SK-MEL-5 melanoma
HCC-2998 colon = tested on: HCC-2998 colon
DMS 273 small cell lung = tested on: DMS 273 small cell lung
LXFL 529 NSCLC = tested on: LXFL 529 NSCLC
HOP-62 NSCLC = tested on: HOP-62 NSCLC
A498 renal = tested on: A498 renal

c1ccc2c(c1)nnn1c3cnccc3nc21
TGI (HOP-92 NSCLC): 67 µM | TGI (DLD-1 colon): > 100 µM | TGI (TK-10 renal): 94.7 µM | TGI (SK-MEL-2 melanoma): > 100 µM | TGI (MOLT-4 leukemia): 54.9 µM | TGI (DMS 114 small cell lung): 69.5 µM | TGI (UO-31 renal): > 100 µM | TGI (OVCAR-3 ovarian): 55.8 µM | TGI (SF-268 CNS): > 100 µM | TGI (EKVX NSCLC): > 100 µM | TGI (HL-60(TB) leukemia): 33 µM | TGI (UACC-257 melanoma): > 100 µM | TGI (SN12C renal): > 100 µM | TGI (NCI-H522 lung): 28.4 µM | TGI (SF-539 CNS): 97.2 µM | TGI (OVCAR-5 ovarian): > 100 µM | TGI (SF-295 CNS): > 100 µM | TGI (M19-MEL melanoma): > 100 µM | TGI (SK-MEL-28 melanoma): > 100 µM | TGI (MALME-3M melanoma): > 100 µM | TGI (ACHN renal): > 100 µM | TGI (NCI-H460 lung): 37.4 µM | TGI (HOP-18 NSCLC): > 100 µM | TGI (U251 CNS): > 100 µM | TGI (RPMI-8226 leukemia): 58.8 µM | TGI (SNB-75 CNS): > 100 µM | TGI (SNB-19 CNS): > 100 µM | TGI (NCI-H23 lung): 69.4 µM | TGI (SW-620 colon): > 100 µM | TGI (A549 NSCLC): > 100 µM | TGI (IGROV1 ovarian): > 100 µM | TGI (M14 melanoma): > 100 µM | TGI (COLO 205 colon): 46.1 µM | TGI (CCRF-CEM leukemia): 44.3 µM | TGI (OVCAR-4 ovarian): 96.6 µM | TGI (K-562 leukemia): 69.6 µM | TGI (HCT-116 colon): > 100 µM | TGI (LOX IMVI melanoma): > 100 µM | TGI (KM12 colon): 64.8 µM | TGI (UACC-62 melanoma): > 100 µM | TGI (SK-OV-3 ovarian): > 100 µM | TGI (CAKI-1 renal): > 100 µM | TGI (SNB-78 CNS): > 100 µM | TGI (786-0 renal): > 100 µM | TGI (HCT-15 colon): 80 µM | TGI (OVCAR-8 ovarian): > 100 µM | TGI (KM20L2 colon): > 100 µM | TGI (RXF 393 renal): 66.3 µM | TGI (HT29 colon): 80.3 µM | TGI (SK-MEL-5 melanoma): > 100 µM | TGI (HCC-2998 colon): > 100 µM | TGI (DMS 273 small cell lung): 36 µM | TGI (LXFL 529 NSCLC): > 100 µM | TGI (HOP-62 NSCLC): > 100 µM | TGI (A498 renal): > 100 µM
